This note sets out measurements from US20160052926A1, “NOVEL PYRIMIDINE AND PYRIDINE COMPOUNDS AND USAGE THEREOF” (HUTCHISON MEDIPHARMA LIMITED, priority 2013, published 2016).

One assay relates to SNU-16. Nature of the assay: Cellular Proliferation Assay (Cell Counting Kit-8), SNU-16. Particulars: Homo sapiens, SNU-16 cells, 72 hours. It is filed as cell-based. The gist of the method:
(§1)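 Seeding was 30,000 (KG-1), 5,000 (SNU-16) or 1,000 (RT-112) cells per well, with compound added 24 h later. Dilutions were prepared as an 8-point series of 10 to 0.004 μM in 5% DMSO, before addition to wells.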
Background: Tetrazolium dyes change colour on reduction, which living cells bring about.

Another assay deals with FGFR3 kinase (Homo sapiens, UniProt P22607). Nature of the assay: Z-Lyte Kinase Assay of FGFR3. It is filed as biochemical. In outline: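 Kinase at 0.7 μg/ml with 4 μM Z-LYTE Tyr 4 peptide and ATP diluted to 300 uM (working solution, 1.33× buffer); compounds 1–0.00046 μM, 2% DMSO final. Kinase reaction and development each 1 h at RT (25-30[…]); coumarin (445 nm) and fluorescein (520 nm) emission read, inhibition from % phosphorylation.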
Chain of FGFR3 kinase (P22607 23-806): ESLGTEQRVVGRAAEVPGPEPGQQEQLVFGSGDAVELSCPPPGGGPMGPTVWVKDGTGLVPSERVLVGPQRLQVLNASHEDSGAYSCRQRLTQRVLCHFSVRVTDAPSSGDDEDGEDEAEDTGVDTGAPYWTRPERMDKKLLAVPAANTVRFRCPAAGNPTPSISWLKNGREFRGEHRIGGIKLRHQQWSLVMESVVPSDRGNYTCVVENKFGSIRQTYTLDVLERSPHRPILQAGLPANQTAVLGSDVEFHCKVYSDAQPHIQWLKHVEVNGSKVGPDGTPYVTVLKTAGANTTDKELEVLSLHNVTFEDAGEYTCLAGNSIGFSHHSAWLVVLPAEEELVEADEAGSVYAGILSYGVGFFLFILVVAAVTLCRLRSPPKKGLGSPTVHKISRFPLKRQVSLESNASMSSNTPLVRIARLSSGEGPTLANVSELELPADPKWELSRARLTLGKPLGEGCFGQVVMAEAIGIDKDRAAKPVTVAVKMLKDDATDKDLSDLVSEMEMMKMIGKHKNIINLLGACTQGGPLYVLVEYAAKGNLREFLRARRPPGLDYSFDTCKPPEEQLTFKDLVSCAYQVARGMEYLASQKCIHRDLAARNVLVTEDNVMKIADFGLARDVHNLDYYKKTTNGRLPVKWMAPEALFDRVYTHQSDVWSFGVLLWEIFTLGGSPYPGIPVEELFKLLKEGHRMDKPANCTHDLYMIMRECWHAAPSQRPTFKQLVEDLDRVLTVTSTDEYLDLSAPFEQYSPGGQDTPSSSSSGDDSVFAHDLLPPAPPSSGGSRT

In another assay the test system is RT-112. The assay can be described thus: Cellular Proliferation Assay (Cell Counting Kit-8), RT-112. It is filed as cell-based. Particulars: Homo sapiens, RT-112 cells, 72 hours. The gist of the method: as §1
In the next assay the target is Recombinant human FGFR2 (Homo sapiens, UniProt P21802). The assay can be described thus: Transcreener Kinase Assay of FGFR2. It is filed as biochemical. To be noted: read-out: FGFR2 (FP) IC50.
Chain of Recombinant human FGFR2 (P21802 22-821): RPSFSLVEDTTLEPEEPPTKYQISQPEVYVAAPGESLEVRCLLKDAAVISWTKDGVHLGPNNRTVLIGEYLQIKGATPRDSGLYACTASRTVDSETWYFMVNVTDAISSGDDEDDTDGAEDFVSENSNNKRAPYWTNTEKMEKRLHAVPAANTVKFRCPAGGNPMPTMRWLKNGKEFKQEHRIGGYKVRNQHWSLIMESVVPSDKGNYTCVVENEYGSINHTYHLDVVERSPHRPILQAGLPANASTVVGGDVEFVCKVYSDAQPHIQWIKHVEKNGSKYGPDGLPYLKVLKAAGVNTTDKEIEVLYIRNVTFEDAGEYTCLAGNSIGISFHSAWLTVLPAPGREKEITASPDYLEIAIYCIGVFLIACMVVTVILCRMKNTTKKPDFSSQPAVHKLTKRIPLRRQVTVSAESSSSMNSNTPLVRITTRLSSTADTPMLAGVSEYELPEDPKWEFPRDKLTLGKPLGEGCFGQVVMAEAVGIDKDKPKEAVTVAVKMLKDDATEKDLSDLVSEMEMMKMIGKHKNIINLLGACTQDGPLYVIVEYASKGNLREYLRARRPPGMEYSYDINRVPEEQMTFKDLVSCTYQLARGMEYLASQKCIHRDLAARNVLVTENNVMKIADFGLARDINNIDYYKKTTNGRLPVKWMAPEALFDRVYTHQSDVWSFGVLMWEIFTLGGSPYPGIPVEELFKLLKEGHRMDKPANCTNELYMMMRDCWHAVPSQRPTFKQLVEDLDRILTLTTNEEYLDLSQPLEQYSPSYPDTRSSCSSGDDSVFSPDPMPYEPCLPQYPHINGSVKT
The target in the next assay is Recombinant human FGFR1 (Homo sapiens, UniProt P11362). The assay can be described thus: Transcreener Kinase Assay of FGFR1. To be noted: read-out: FGFR1 (FP) IC50. It is filed as biochemical.
Chain of Recombinant human FGFR1 (P11362 22-822): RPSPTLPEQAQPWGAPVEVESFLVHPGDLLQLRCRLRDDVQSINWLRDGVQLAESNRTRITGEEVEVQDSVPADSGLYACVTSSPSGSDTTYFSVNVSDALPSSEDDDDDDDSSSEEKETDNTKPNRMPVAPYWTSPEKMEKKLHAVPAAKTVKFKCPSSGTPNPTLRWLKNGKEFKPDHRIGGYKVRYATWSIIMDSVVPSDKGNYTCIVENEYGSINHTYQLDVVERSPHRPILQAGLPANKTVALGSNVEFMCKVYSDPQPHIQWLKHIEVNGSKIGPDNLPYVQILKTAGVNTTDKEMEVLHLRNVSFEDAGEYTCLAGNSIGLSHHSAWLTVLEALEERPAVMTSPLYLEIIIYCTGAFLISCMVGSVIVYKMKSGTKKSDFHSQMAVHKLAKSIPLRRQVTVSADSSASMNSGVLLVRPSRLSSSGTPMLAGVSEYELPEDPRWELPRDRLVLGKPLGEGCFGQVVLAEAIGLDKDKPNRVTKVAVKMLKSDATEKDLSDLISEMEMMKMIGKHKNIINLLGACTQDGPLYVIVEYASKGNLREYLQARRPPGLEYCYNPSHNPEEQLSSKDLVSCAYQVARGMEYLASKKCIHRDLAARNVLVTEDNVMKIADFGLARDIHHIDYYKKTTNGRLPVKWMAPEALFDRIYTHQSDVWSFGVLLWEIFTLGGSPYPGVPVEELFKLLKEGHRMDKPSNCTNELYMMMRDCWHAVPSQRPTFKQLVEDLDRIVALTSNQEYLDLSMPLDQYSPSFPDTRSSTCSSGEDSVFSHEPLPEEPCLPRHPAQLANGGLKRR
The next assay concerns KG-1. Nature of the assay: Cellular Proliferation Assay (Cell Counting Kit-8), KG-1. Type of assay: cell-based. Particulars: Homo sapiens, KG1 cells, 72 hours. In outline: as §1

In the case of `CNC(=O)c1cc(COc2cnc(Nc3ccc(N4CCNC(C)(C)C4)cc3)nc2)c(F)c(OC)c1` [Compound 193], the half-inhibitory concentration (IC50) turned out to be 17 nM in the assay on SNU-16; 11 nM against FGFR3 kinase; 21 nM with RT-112; 5 nM at Recombinant human FGFR2; 8 nM at Recombinant human FGFR1; 62 nM with KG-1.

`CCn1cc(Nc2ncc(OCc3c(F)c(OC)cc(C(=O)NC)c3F)cn2)cn1` [Compound 203]: the IC50 was 23 nM in the assay on SNU-16; 14 nM against FGFR3 kinase; 37 nM in the assay on RT-112; 8 nM on Recombinant human FGFR2; 11 nM at Recombinant human FGFR1; 11 nM in the assay with KG-1.

As for `CCN1CC(n2cc(Nc3ncc(CCc4cc(C(=O)NC)cc(OC)c4F)cn3)cn2)C1` [Compound 167], the IC50 in the assay on SNU-16 turned out to be 48 nM; on FGFR3 kinase, 15 nM; in the assay on RT-112 it was 382 nM; at Recombinant human FGFR2 it was 10 nM; on Recombinant human FGFR1, 18 nM; in the assay on KG-1, 62 nM.

For the compound `CNC(=O)c1cc(COc2ccc(Nc3ccc(N4C[C@@H](C)N[C@@H](C)C4)cc3)nc2)c(F)c(OC)c1` [Compound 191], the IC50 is 534 nM with SNU-16; 334 nM against FGFR3 kinase; 540 nM in the assay with RT-112; 68 nM at Recombinant human FGFR2; 181 nM on Recombinant human FGFR1; 647 nM with KG-1.

With `CCONC(=O)c1cc(CCc2cnc(Nc3ccc(N4CCN(CC)CC4)cc3)nc2)cc(OC)c1` [Compound 50], the IC50 came out at 132 nM in the assay with SNU-16; 29 nM against FGFR3 kinase; 352 nM in the assay with RT-112; 15 nM on Recombinant human FGFR2; 14 nM on Recombinant human FGFR1; 45 nM with KG-1.

Regarding `CCN(CC)CCCn1cc(Nc2ncc(CCc3cc(C(=O)NC)cc(OC)c3F)cn2)cn1` [Compound 13], the IC50 in the assay with SNU-16 was 21 nM; at FGFR3 kinase, 7 nM; in the assay on RT-112, 59 nM; on Recombinant human FGFR2, 10 nM; on Recombinant human FGFR1, 29 nM; in the assay with KG-1, 498 nM.

For `CONC(=O)c1cc(CCc2cnc(Nc3ccc(N4C[C@@H](C)N[C@@H](C)C4)c(F)c3)nc2)cc(OC)c1` [Compound 54], the IC50 worked out at 10 nM with SNU-16; 6 nM on FGFR3 kinase; 31 nM with RT-112; 3 nM at Recombinant human FGFR2; 6 nM on Recombinant human FGFR1; 18 nM with KG-1.

Take `CONC(=O)c1cc(CCc2cnc(Nc3ccccc3)nc2)cc(OC)c1` [Compound 22]: the IC50 in the assay on SNU-16 is 26 nM; against FGFR3 kinase it was 20 nM; with RT-112, 84 nM; on Recombinant human FGFR2, 5 nM; at Recombinant human FGFR1 it was 9 nM; in the assay with KG-1, 28 nM.

Consider `CNC(=O)c1cc(CCc2cnc(Nc3cnn(CCN4CCN(C)CC4)c3)nc2)c(F)c(OC)c1` [Compound 45], for which the IC50 is 34 nM in the assay with SNU-16; 10 nM against FGFR3 kinase; 94 nM with RT-112; 7 nM at Recombinant human FGFR2; 14 nM at Recombinant human FGFR1; 388 nM in the assay with KG-1.

For the compound `CNC(=O)c1cc(COc2cnc(Nc3cnn(C)c3)nc2)c(F)c(OC)c1` [Compound 182], the IC50 in the assay with SNU-16 turned out to be 19 nM; against FGFR3 kinase it was 10 nM; in the assay on RT-112, 33 nM; on Recombinant human FGFR2, 9 nM; on Recombinant human FGFR1 it was 27 nM; in the assay on KG-1 it was 8 nM.

The term IC50 denotes the concentration needed to halve the response being measured.
